From patent US12692264B2, “Pyrimidine or pyridine derivative, preparation method therefor, and application thereof in pharmacy” (ABBISKO THERAPEUTICS CO., LTD., priority 2021, dated 2026)

Tests used:
Format in all cases: cell-based
[1] = biological target: Ba/F3 EGFR-D770-N771ins_SVD (Homo sapiens, UniProt P00533, DUP768-770, cells depend on it); assay: Cell proliferation study (CellTiter-Glo, 72 hrs), Ba/F3 EGFR-D770-N771ins_SVD; conditions: CTG, * = average of multiple measurements, read-out: Ba/F3 EGFR-D770-N771ins_SVD IC50
Chain of Ba/F3 EGFR-D770-N771ins_SVD (P00533 with tags, fused parts or gaps DUP768-770): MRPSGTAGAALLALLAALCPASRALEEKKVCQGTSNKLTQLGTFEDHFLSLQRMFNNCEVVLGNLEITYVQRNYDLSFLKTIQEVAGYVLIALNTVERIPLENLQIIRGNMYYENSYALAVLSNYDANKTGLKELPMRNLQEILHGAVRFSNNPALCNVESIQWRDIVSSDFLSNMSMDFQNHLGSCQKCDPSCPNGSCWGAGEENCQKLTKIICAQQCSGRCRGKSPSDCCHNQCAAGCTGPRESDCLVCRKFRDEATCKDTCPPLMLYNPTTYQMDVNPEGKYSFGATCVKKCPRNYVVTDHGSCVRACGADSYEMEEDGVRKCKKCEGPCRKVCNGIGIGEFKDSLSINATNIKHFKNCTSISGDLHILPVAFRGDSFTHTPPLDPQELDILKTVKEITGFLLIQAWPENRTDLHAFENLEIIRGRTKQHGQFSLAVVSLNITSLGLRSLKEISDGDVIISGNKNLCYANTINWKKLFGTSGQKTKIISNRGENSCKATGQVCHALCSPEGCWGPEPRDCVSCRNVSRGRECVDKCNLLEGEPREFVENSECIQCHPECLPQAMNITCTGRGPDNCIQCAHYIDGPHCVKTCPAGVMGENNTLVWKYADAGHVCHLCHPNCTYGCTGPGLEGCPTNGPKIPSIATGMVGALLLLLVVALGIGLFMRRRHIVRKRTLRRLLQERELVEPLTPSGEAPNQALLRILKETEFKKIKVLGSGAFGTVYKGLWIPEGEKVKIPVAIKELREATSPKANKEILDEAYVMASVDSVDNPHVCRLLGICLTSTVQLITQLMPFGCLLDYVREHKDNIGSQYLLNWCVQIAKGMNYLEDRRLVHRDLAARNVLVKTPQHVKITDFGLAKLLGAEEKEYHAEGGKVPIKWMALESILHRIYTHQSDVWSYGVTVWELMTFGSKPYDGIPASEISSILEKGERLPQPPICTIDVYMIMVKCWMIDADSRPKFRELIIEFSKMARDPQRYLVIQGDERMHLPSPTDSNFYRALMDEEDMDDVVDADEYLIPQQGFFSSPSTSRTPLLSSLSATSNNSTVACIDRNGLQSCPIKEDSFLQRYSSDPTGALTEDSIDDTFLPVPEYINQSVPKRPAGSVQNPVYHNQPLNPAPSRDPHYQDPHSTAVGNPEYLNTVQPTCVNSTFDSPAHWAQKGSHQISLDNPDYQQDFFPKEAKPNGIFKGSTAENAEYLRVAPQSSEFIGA
Description: (§1) (I) Reagents and Materials
(§2) • Fetal bovine serum FBS (GBICO, Cat #10099-141); • CellTiter-Glo® luminescent cell viability assay kit (Promega, Cat #G7572); • Black transparent flat-bottom 96-well plate (Corning®, Cat #3603). (II) Instruments • SpectraMax multi-label microplate reader MD, 2104-0010A; • Carbon dioxide incubator, Thermo Scientific 3100 series; • Biological safety cabinet, Thermo Scientific, 1300 series model A2; • Inverted microscope, Olympus, CKX41SF; • Siemens refrigerator KK25E76T1. (III) Cell Lines and Culture Conditions
(§3) (IV) Experimental Procedures 1. Cell Culture and Inoculation: • (1) Cells in the logarithmic growth phase were harvested and counted using a […]. The cell viability was determined by the trypan blue dye exclusion method to ensure cell viability above 90%. • (2) The cell concentration was adjusted to reach a desired final density; 90 μL of cell suspension was added to a 96-well plate. • (3) The cells were incubated overnight in the 96-well plate at 37° C., 5% CO2 and with 95% humidity. 2. T0 Benchmark Data: • (1) 10 μL of PBS was added to each well of the TO plate containing the cells. • (2) The CTG reagent was thawed and the cell plate was equilibrated to room temperature for 30 min. • (3) An equal volume of CTG solution was added to each well. • (4) The cells were lysed by shaking on an orbital shaker for 5 min. • (5) The cell plate was left to stand at room temperature for 20 min to stabilize the fluorescence signal. • (6) The fluorescence signal values of TO were read. 3. Dilution and Addition of Compounds • (1) According to the compound information table, a corresponding volume of DMSO was added to the corresponding compound powder to prepare a 10 mM stock solution. • (2) A 1000-fold, 3.16-fold-diluted compound solution was prepared. • (3) The 1000× diluted compound solution was diluted 100-fold with PBS to prepare a 10-fold compound solution with a maximum concentration of 10 μM, including 9 concentrations, with 3.16-fold dilution, and 10 μL of the medicament solution was added to each well of the 96-well plate to seed the cells. Triplicate wells were set for each compound concentration, with a final concentration of DMSO being 0.1%. • (4) The cells were placed in the 96-well plate containing the medicament at 37° C., 5% CO2 and with 95% humidity, and cultured for 72 hrs before CTG analysis. 4. Fluorescence Signal Reading • (1) The CTG reagent was thawed and the cell plate was equilibrated to room temperature for 30 min. • (2) An equal volume of CTG solution was added to each well. • (3) The cells were lysed by shaking on an orbital shaker for 5 min. • (4) The cell plate was left to stand at room temperature for 20 min to stabilize the fluorescence signal. • (5) The fluorescence values were read. 5. Data Processing
(§4) Data were analyzed using GraphPad Prism 7.0 software and fitted data were regressed using non-linear S-curves to obtain dose-response curves from which IC50 values (in nM) were calculated.

A431 (EGFR-WT) = assay: Cell proliferation study (CellTiter-Glo, 72 hrs), A431; conditions: Homo sapiens, A-431, A431 cells, CTG, * = average of multiple measurements
Description: as §1, §2, §3, §4

[2] = biological target: Ba/F3 EGFR-V769_D770insASV (Homo sapiens, UniProt P00533, DUP767-769, cells depend on it); assay: Cell proliferation study (CellTiter-Glo, 72 hrs), Ba/F3 EGFR-V769_D770insASV; conditions: CTG, * = average of multiple measurements, read-out: Ba/F3 EGFR-V769_D770insASV IC50
Chain of Ba/F3 EGFR-V769_D770insASV (P00533 with tags, fused parts or gaps DUP767-769): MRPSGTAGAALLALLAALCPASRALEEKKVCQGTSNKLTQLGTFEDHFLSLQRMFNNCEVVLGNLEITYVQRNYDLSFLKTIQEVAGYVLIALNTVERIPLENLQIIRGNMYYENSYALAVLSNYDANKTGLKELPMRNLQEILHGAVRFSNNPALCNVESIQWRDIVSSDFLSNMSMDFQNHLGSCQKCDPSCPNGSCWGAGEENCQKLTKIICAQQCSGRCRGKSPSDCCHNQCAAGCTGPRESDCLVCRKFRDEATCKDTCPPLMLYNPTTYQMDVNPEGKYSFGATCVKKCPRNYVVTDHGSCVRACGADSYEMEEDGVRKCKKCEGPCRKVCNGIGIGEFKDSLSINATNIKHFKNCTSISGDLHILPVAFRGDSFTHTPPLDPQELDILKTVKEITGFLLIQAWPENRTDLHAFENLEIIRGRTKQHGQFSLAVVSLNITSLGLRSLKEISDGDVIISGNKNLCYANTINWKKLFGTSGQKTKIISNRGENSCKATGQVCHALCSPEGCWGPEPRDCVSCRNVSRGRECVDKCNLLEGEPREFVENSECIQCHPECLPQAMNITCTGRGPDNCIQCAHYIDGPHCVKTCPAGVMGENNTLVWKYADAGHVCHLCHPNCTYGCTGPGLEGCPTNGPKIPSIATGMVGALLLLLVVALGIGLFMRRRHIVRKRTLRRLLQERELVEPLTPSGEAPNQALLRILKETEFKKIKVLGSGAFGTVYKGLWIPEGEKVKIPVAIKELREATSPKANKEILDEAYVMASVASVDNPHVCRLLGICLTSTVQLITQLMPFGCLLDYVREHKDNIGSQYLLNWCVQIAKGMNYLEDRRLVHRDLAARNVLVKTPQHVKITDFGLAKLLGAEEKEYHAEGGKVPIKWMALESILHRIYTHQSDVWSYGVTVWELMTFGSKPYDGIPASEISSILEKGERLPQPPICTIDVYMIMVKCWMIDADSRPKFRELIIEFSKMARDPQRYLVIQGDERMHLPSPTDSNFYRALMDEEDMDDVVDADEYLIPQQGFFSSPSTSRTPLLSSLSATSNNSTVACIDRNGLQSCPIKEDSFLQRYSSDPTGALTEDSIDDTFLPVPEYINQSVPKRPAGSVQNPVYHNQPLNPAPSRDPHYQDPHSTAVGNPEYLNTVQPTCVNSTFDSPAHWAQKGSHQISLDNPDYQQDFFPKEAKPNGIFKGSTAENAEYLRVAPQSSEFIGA
Description: as §1, §2, §3, §4

Structure (SMILES)	GI50 [1] [µM]	IC50 (A431 (EGFR-WT)) [µM]	GI50 [2] [µM]
C=CC(=O)Nc1cc(Nc2ncc(C(=O)OC(C)C)c(N3CC(C)(C)c4nc(C)ccc43)n2)c(OC)cc1N(C)CCN(C)C [Example 1, isopropyl 2-((5-acrylamido-4-((2-(dimethylamino)ethyl)(methyl)amino)-2-methoxyphenyl)amino)-4-(3,3,5-trimethyl-2,3-dihydro-1H-pyrrolo[3,2-b]pyridin-1-yl)pyrimidine-5-carboxylate]	0.007	0.105	0.0104
C=CC(=O)Nc1cc(Nc2ncc(C(=O)OC(C)C)c(N3CC(C)(C)c4nc(C5CC5)ccc43)n2)c(OC)cc1N(C)CCN(C)C [Example 4, isopropyl 2-((5-acrylamido-4-((2-(dimethylami-no)ethyl)(methyl)amino)-2-methoxy-phenyl)amino)-4-(5-cyclopropyl-3,3-dimethyl-2,3-dihydro-1H-pyrrolo[3,2-b]pyridin-1-yl)pyrimidine-5-carboxylate]	0.0595	0.163	–
[2H]C([2H])([2H])Oc1cc(N(C)CCN(C)C)c(NC(=O)C=C)cc1Nc1ncc(C(=O)OC(C)C)c(N2CC(C)(C)c3nc(C)ccc32)n1 [Example 27, isopropyl 2-((5-acrylamido-4-((2-(dimethylami-no)ethyl)(methyl)amino)-2-(methoxy-d3)phenyl)amino)-4-(3,3,5-trimethyl-2,3-dihydro-1H-pyrrolo[3,2-b]pyridin-1-yl)pyrimidine-5-carboxylate]	0.0141	0.58	–
C=CC(=O)Nc1cc(Nc2ncc(C(=O)OC(C)C)c(N3CC(C)(C)c4nc(C)ccc43)n2)c(OC)nc1N1CC[C@@H](N(C)C)C1 [Example 35, isopropyl (R)-2-((5-acrylamido-6-(3-(dimethyl-amino)pyrrolidin-1-yl)-2-methoxy-pyridin-3-yl)amino)-4-(3,3,5-trimethyl-2,3-dihydro-1H-pyrrolo[3,2-b]pyridin-1-yl)pyrimidine-5-carboxylate]	0.036	1.07	–
C=CC(=O)Nc1cc(Nc2ncc(C(=O)OC(C)C)c(N3CC(C)(C)c4nc(C)ccc43)n2)c(OC)cc1N(C)C[C@@H]1CCCN1C [Example 41, isopropyl (S)-2-((5-acrylamido-2-methoxy-4-(methyl((1-methylpyrrolidin-2-yl)methyl)amino)phenyl)amino)-4-(3,3,5-trimethyl-2,3-dihydro-1H-pyrrolo[3,2-b]pyridin-1-yl)pyrimidine-5-carboxylate]	0.0363	0.213	–
[2H]C1([2H])N(c2nc(Nc3cc(NC(=O)C=C)c(N4CCN(C5CC5)CC4)cc3OC)ncc2C(=O)OC(C)C)c2ccc(C)nc2C1(C)C [Example 53, isopropyl 2-((5-acrylamido-4-(4-cyclopropyl-piperazin-1-yl)-2-methoxy-phenyl)amino)-4-(3,3,5-trimethyl-2,3-dihydro-1H-pyrrolo[3,2-b]pyridin-1-yl-2,2-d2)pyrimidine-5-carboxylate]	0.552	–	–
C=CC(=O)Nc1cc(Nc2ncc(C(=O)OC(C)C)c(N3CC(C)(C)c4nc(C)ccc43)n2)c(OC)cc1N1CCC[C@@H](N(C)C)C1 [Example 61, isopropyl (R)-2-((5-acrylamido-4-(3-(dimethyl-amino)piperidin-1-yl)-2-methoxy-phenyl)amino)-4-(3,3,5-trimethyl-2,3-dihydro-1H-pyrrolo[3,2-b]pyridin-1-yl)pyrimidine-5-carboxylate]	0.255	–	–
C=CC(=O)Nc1cc(Nc2ncc(C(=O)OC(C)C)c(N3CC(C)(C)c4nc(C)ccc43)n2)c(OC)cc1N(C)CCN1CCCC1 [Example 66, isopropyl 2-((5-acrylamido-2-methoxy-4-(methyl(2-(pyrrolidin-1-yl)ethyl)amino)phenyl)amino)-4-(3,3,5-trimethyl-2,3-dihydro-1H-pyrrolo[3,2-b]pyridin-1-yl)pyrimidine-5-carboxylate]	0.0169	–	0.0272
[2H]C([2H])([2H])N(CCN(C)C)c1cc(OC)c(Nc2ncc(C(=O)OC(C)C)c(N3CC4(CC4)c4nc(C)ccc43)n2)cc1NC(=O)C=C [Example 68, isopropyl 2-((5-acrylamino-4-((2-(dimethylami-no)ethyl)(methyl-d3)amino)-2-methoxyphenyl)amino)-4-(5′-methylspiro(cyclopropane-1,3′-pyrrolo[3,2-b]pyridin)-1′(2′H)-yl)pyrimidine-5-carboxylate]	0.0306	–	–
[2H]C([2H])([2H])N(CCN(C([2H])([2H])[2H])C([2H])([2H])[2H])c1cc(OC)c(Nc2ncc(C(=O)OC(C)C)c(N3CC4(CC4)c4nc(C)ccc43)n2)cc1NC(=O)C=C [Example 69, isopropyl 2-((5-acrylamido-4-((2-(bis(methyl-d3)amino)ethyl)(methyl-d3)amino)-2-methoxyphenyl)amino)-4-(5′-methylspiro(cyclopropane-1,3′-pyrrolo[3,2-b]pyridin)-1′(2′H)-yl)pyrimidine-5-carboxylate]	0.0269	–	0.0352
C=CC(=O)Nc1cc(Nc2ncc(C(=O)OC(C)C)c(N3CC(C)(C)c4nc(C#CC)ccc43)n2)c(OC)cc1N1CCN(C)CC1 [Example 70, isopropyl 2-((5-acrylamido-2-methoxy-4-(4-methylpiperazin-1-yl)phenyl)amino)-4-(3,3-dimethyl-5-(prop-1-yn-1-yl)-2,3-dihydro-1H-pyrrolo[3,2-b]pyridin-1-yl)pyrimidine-5-carboxylate]	0.501	–	–
C=CC(=O)Nc1cc(Nc2ncc(C(=O)OC(C)C)c(N3CC(C)(C)c4nc(C#CC)ccc43)n2)c(OC)cc1N1CCN(C2CC2)CC1 [Example 75, isopropyl 2-((5-acrylamido-4-(4-cyclopropyl-piperazin-1-yl)-2-methoxyphenyl)ami-no)-4-(3,3-dimethyl-5-(prop-1-yn-1-yl)-2,3-dihydro-1H-pyrrolo[3,2-b]pyridin-1-yl)pyrimidine-5-carboxylate]	2.85	–	–
C=CC(=O)Nc1cc(Nc2ncc(C(=O)OC(C)C)c(N3CC(C)(C)c4nc5c(cc43)CCC5)n2)c(OC)cc1N(C)CCN(C)C [Example 80, isopropyl 2-((5-acrylamido-4-((2-(dimethylami-no)ethyl)(methyl)amino)-2-methoxy-phenyl)amino)-4-(3,3-dimethyl-3,5,6,7-tetrahydrocyclopenta[b]pyrrolo[2,3-e]pyridin-1(2H)-yl)pyrimidine-5-carboxylate]	0.0449	–	–
C=CC(=O)Nc1cc(Nc2ncc(C(=O)OC(C)C)c(N3CC(C)(C)c4nc(Br)ccc43)n2)c(OC)cc1N(C)CCN(CC)CC [Example 90, isopropyl 2-((5-acrylamido-4-((2-(diethyl-amino)ethyl)(methyl)amino)-2-methoxyphenyl)amino)-4-(5-bromo-3,3-dimethyl-2,3-dihydro-1H-pyrrolo[3,2-b]pyridin-1-yl)pyrimidine-5-carboxylate]	0.116	–	–
C=CC(=O)Nc1cc(Nc2ncc(C(=O)OC(C)C)c(N3CC(C)(C)c4cc(F)c(F)cc43)n2)c(OC)cc1N1CC[C@@H](N(C)C)C1 [Example 94, isopropyl (R)-2-((5-acrylamido-4-(3-(dimethyl-amino)pyrrolidin-1-yl)-2-methoxy-phenyl)amino)-4-(5,6-difluoro-3,3-dimethylindolin-1-yl)pyrimidine-5-carboxylate]	0.06	–	–
C=CC(=O)Nc1cc(Nc2ncc(C(=O)OC(C)C)c(N3CC(C)(C)c4nc(C#CC)ccc43)n2)c(OC)cc1N1CCN(C)C(C)C1 (stereo not drawn) [Example 95, isopropyl 2-((5-acrylamido-4-(3,4-dimethyl-piperazin-1-yl)-2-methoxy-phenyl)amino)-4-(3,3-dimethyl-5-(prop-1-yn-1-yl)-2,3-dihydro-1H-pyrrolo[3,2-b]pyridin-1-yl)pyrimidine-5-carboxylate]	0.254	–	–
